Assay results published in patent publication US6548543B1, “Remedies or preventives containing cyclopentenone compounds as the active ingredient” (Takara Shuzo Co., Ltd., priority 1998, dated 2003).

Tests used:
[1] = tested on: Meth A; test: Ascitic cancer Meth A, prolongation of survival, 5 successive days; type: in vivo, BALB/c mouse; details: for 30-day survival number: groups of 8 mice
Method: (3) The carcinostatic activities of dipropionylcyclopentenone and diisobutyrylcyclopentenone against various ascitic cancers were examined using two types of cancer cells, Ehrlich ascites carcinoma (EAC) and Meth A, administered intraperitoneally or orally at a varying dose.
Dipropionylcyclopentenone or diisobutyrylcyclopentenone was intraperitoneally or orally administered for 5 successive days from the day after the transplantation with cancer cells. Injectable distilled water was administered to a control group in a similar manner. Average days of survival, prolongation rate and 30-day survival number were calculated for groups each consisting of 8 mice.

[2] = tested on: Candida albicans TIMM0136; test: Antifungal activity, growth inhibition; type: cell-based; details: 10 μl of solution at 100 or 500 μg/ml added to 100 μl culture; 30° C., 48 hours
Method: Dipropionylcyclopentenone, diisobutyrylcyclopentenone and di-2-hexenoylcyclopentenone were used to examine their antifungal activities against Candida albicans TIMM0136.
Candida albicans cells were cultured overnight in YNBG medium containing 0.67% Yeast Nitrogen Base (Difco) and 1.0% glucose (seed culture). The culture was then diluted with fresh Yeast Nitrogen Base medium to a concentration of 1×10^6 cells/ml. 100 μl of the dilution was dispensed into each well of a 96-well microtiter plate.
10 μl each of solutions of dipropionylcyclopentenone, diisobutyrylcyclopentenone or di-2-hexenoylcyclopentenone in 70% ethanol at a concentration of 100 μg/ml or 500 μg/ml, or 10 μl of 70% ethanol solution was added to the well. The plate was incubated without shaking at 30° C. for 48 hours (main culture).

[3] = tested on: tumor necrosis factor (TNF)-α; test: Endotoxin shock model, serum TNF-α after LPS; type: in vivo, CDF1 mice
Method: (1) A model for endotoxin shock was constructed using CDF1 mice (8 weeks old, female, purchased from Japan SLC). Distilled water (control), or 10 mg/kg of diisopropionylcyclopentenone or diisobutyrylcyclopentenone was subcutaneously administered to a mouse. 20 μg of lipopolysaccharide (LPS; Sigma) was intraperitoneally administered to each mouse 30 minutes after the administration. Blood was collected from the mouse 1.5 hours after the administration with LPS. The amount of tumor necrosis factor (TNF)-α in a serum separated from the collected blood was measured using a commercially available ELISA kit (R&D). Each group consisted of 4 mice.
(2) A model for endotoxin shock was constructed by intraperitoneally administering 20 μg of LPS to a CDF1 mouse (8 weeks old, female). 30 or 100 mg/kg of dipropionylcyclopentenone or diisobutyrylcyclopentenone was orally administered 30 minutes before the administration with LPS. Blood was collected from the mouse 1.5 hours after the administration with LPS. The amount of TNF-α in a serum separated from the collected blood was measured using an ELISA kit. Each group consisted of 4 mice.

[4] = tested on: mixed spleen lymphocytes (BALB/c and C57BL/6); test: Mixed lymphocyte reaction, 3H-thymidine uptake; type: cell-based, mouse; details: 1 μM
Method: (2) Spleens were taken out from a BALB/c mouse (male, 6 weeks old, purchased from Japan SLC) and a C57BL/6 mouse (male, 6 weeks old, purchased from Japan SLC) and spleen lymphocytes were obtained according to the method as described in Example 11-(1). The concentration of each of the cell suspensions was adjusted to 2×10^6 cell/ml, 100 μl portions from respective suspensions were mixed together and seeded into a 96-well microtiter plate. Dipropionylcyclopentenone at a varying concentration was added to the wells other than the control well, and the plate was incubated at 37° C. for 4 days in a CO2 incubator. After incubation, 1 μCi of ^3H-thymidine was added to each well, and the plate was incubated for additional 1 day. The uptake into cells was measured using a liquid scintillation counter.
FIG. 8 illustrates the relationship between the concentration of dipropionylcyclopentenone and the amount of ^3H-thymidine uptake. The horizontal axis represents the dipropionylcyclopentenone concentration (μM) and the vertical axis represents ^3H-thymidine uptake (CPM). The open bar represents the ^3H-thymidine uptake when cells from one of the lines were used independently. The shaded bar represents the ^3H-thymidine uptake when cells from both of the lines were mixed together.

[5] = tested on: λ-carrageenan pedal edema; test: Carrageenan induced pedal edema; type: in vivo, Lewis rats; details: rat, 3 hours after carrageenan
Method: Lewis rats (male, 9 weeks old, weighing about 250 g) were purchased from Seac Yoshitomi.
Rats were fasted from 18 hours before the start of the experiments. Dipropionylcyclopentenone, dihexanoylcyclopentenone, di-2-hexenoylcyclopentenone, diisobutyrylcyclopentenone or dibenzoylcyclopentenone dissolved in olive oil (Nacalai Tesque) was orally administered to 4 rats per group at 1 or 10 mg/10 ml/kg.
100 μl of 1% λ-carrageenan (Wako Pure Chemical Industries) suspension in saline (Otsuka Pharmaceutical) was injected into the sole of right paw of a rat 0.5 hour after the administration of test substance to induce pedal edema. The volume of the right foot of the rat was measured using an instrument for measuring pedal volume (Ugo Basile) 3 hours after the injection with carrageenan. The measurements were expressed as the rate of increase calculated based on the volume of the right foot of each rat measured before the administration with carrageenan.
FIG. 5 illustrate the relationship between the amount of cyclopentenone derivative administered and the rate of increase in edema in foot. The horizontal axis represents the dose […] and the vertical axis represents the rate of increase (%).

[6] = tested on: delayed hypersensitivity pedal edema; test: Delayed hypersensitivity (DTH) with sheep erythrocytes; type: in vivo, C57BL/6 mice; details: once a day for 3 days
Method: C57BL/6 mice (male, 7 weeks old, weighing about 25 g) were purchased from Japan SLC and pre-bred for 1 week before using in experiments.
Sheep erythrocytes (Shimizu Laboratory Supplies) as raising antigens were washed three times with saline (Otsuka Pharmaceutical) and suspended in saline at a concentration of 1×10^9 cells/ml. 200 μl of the suspension was intraperitoneally injected into the mouse for sensitization with the antigen. 40 μl of similarly prepared antigen was injected to the sole of right paw 5 days after the sensitization for antigenic induction to induce pedal edema.
Dipropionylcyclopentenone dissolved in saline at a varying concentration was intraperitoneally or orally administered to 5 mice per group once a day for 3 days from the day of sensitization with the antigen. The volume of the right foot of the mouse was measured using an instrument for measuring pedal volume (Ugo Basile) 2 days after the antigenic induction and used as an index of DTH. The measurements were expressed as the rate of increase calculated according to the following equation based on the volume of the right foot of each mouse measured before the antigenic induction.
Rate of increase=(volume of right foot after antigenic induction−volume of right foot before antigenic induction)/volume of right foot before antigenic induction

For CCC(=O)OC1C=CC(=O)C1OC(=O)CC (stereo not drawn), which “Average days of survival” value ([1]; intraperitoneal 10 mg/kg) is on record?
Its value is 20.5 days.

And the Prolongation rate ([1]; intraperitoneal 10 mg/kg)?
The Prolongation rate was 174%.

What about the 30-day survival number ([1]; intraperitoneal 10 mg/kg) of the same compound?
The 30-day survival number was 0.

And the “Average days of survival” value ([1]; oral 30 mg/kg)?
The value was 17.3 days.

And the Prolongation rate ([1]; oral 30 mg/kg)?
Its Prolongation rate is greater than 147%.

What about the 30-day survival number ([1]; oral 30 mg/kg) of the same compound?
The 30-day survival number was 2.

And the “Minimum growth inhibitory concentration” value [2]?
Its value is 500 µg/mL.

And the “TNF-α production compared with control group (statement)” value ([3]; 10 mg/kg subcutaneous)?
The value was “significantly suppressed”.

What about the “Amount of TNF mean ± SE” value ([3]; 10 mg/kg subcutaneous 30 minutes before LPS, serum 1.5 hours after LPS) of the same compound?
The value was 4.61 ± 0.57 ng/mL.

What about the “TNF mean ± SE” value ([3]; 30 mg/kg oral 30 minutes before LPS, serum 1.5 hours after LPS) of the same compound?
The value was 2.95 ± 0.14 ng/mL.

And the “TNF mean ± SE” value ([3]; 100 mg/kg oral 30 minutes before LPS, serum 1.5 hours after LPS)?
Its value is 1.26 ± 0.15 ng/mL.

What about the “TNF production compared with control group (statement)” value ([3]; oral 30 or 100 mg/kg) of the same compound?
The value was “suppressed the TNF production in a dose-dependent manner”.

What about the “Inhibition of mixed lymphocyte reaction (FIG. 8)” value [4] of the same compound?
Its value is “almost completely inhibited”.

What about the “Suppression of edema in foot (FIG. 5)” value ([5]; 1 mg/kg oral) of the same compound?
Its value is “Tendency to suppress the edema in the foot”.

What about the “Suppression of edema in foot (FIG. 5)” value ([5]; 10 mg/kg oral) of the same compound?
Its value is “significant suppression”.

And the “Suppression of edema in foot, DTH (FIG. 6)” value (“Suppression … (FIG. 6)” for short) ([6]; 1 mg/kg intraperitoneal)?
Its value is “Tendency to suppress the edema in the foot”.

And the “Suppression … (FIG. 6)” value ([6]; 10 mg/kg intraperitoneal)?
The value was “significant suppression”.

And the “Suppression … (FIG. 6)” value ([6]; 30 mg/kg oral)?
The value was “significant suppression”.
